Laboratory results taken from US5041567A, “Antibacterial monic acid derivatives” (Beecham Group plc, priority 1982, dated 1991).
In brackets after ≈: the same amount, converted by molar mass. Where two headings read alike, the source gives them in different places.

Tests used:
M. suipneumoniae MS 16 = assay: MIC against mycoplasma in vitro; assay type: cell-based; conditions: M. suipneumoniae MS 16, 6 days, 37° C.
M. suipneumoniae UCD 1 = assay: MIC against mycoplasma in vitro; assay type: cell-based
[1] = system: Strep. suis (group D) SPS11; assay: MIC against veterinary bacteria in vitro
Procedure: (§1) The activity of the compounds of the Examples against various veterinarily important bacteria, was assayed in vitro using two-fold serial dilutions in Diagnostic Sensitivity Test Agar inoculated with 10^4 organisms.

[2] = system: Pasteurella multocida 1633; assay: MIC against human bacteria in vitro; assay type: cell-based; conditions: Pasteurella multocida 1633, 5% chocolated horse blood agar, 18 hours
Staph. aureus W2827 = assay: MIC against human bacteria in vitro; assay type: cell-based; conditions: Staph. aureus W2827, 5% chocolated horse blood agar, 18 hours
[3] = system: Staph. aureus B4 (pen. resistant); assay: MIC against veterinary bacteria in vitro
Procedure: as §1

M. hyorhinis ATCC 23234 = assay: MIC against mycoplasma in vitro; assay type: cell-based
Strep. faecalis I = assay: MIC against human bacteria in vitro; assay type: cell-based; conditions: Strep. faecalis I, 5% chocolated horse blood agar, 18 hours
M. suipneumoniae TAM 6N = assay: MIC against mycoplasma in vitro; assay type: cell-based
[4] = system: M. suipneumoniae PW/C/210; assay: MIC against mycoplasma in vitro; assay type: cell-based; conditions: Mesomycoplasma hyopneumoniae, 144 h
Bacillus subtilis 6633 = assay: MIC against human bacteria in vitro; assay type: cell-based; conditions: Bacillus subtilis 6633, 5% chocolated horse blood agar, 18 hours
Sarcina lutea 8340 = assay: MIC against human bacteria in vitro; assay type: cell-based; conditions: Sarcina lutea 8340, 5% chocolated horse blood agar, 18 hours
M. hyorhinis ATCC 25021 = assay: MIC against mycoplasma in vitro; assay type: cell-based
Bord. bronchiseptica B08 = assay: MIC against veterinary bacteria in vitro
Procedure: as §1

Strep. agalactiae SPA1 = assay: MIC against veterinary bacteria in vitro
Procedure: as §1

Strep. agalactiae 2788-B = assay: MIC against human bacteria in vitro; assay type: cell-based; conditions: Strep. agalactiae 2788-B, 5% chocolated horse blood agar, 18 hours
Staph. aureus Russell = assay: MIC against human bacteria in vitro; assay type: cell-based; conditions: Staph. aureus Russell, 5% chocolated horse blood agar, 18 hours
E. coli NCTC 10418 = assay: MIC against human bacteria in vitro; assay type: cell-based; conditions: E. coli NCTC 10418, agar with 5% chocolated horse blood, 18 hours, 37° C.
Strep. dysgalactiae SPD1 = assay: MIC against veterinary bacteria in vitro
Procedure: as §1

Bord. bronchiseptica B09 = assay: MIC against veterinary bacteria in vitro
Procedure: as §1

Staph. aureus Oxford = assay: MIC against human bacteria in vitro; assay type: cell-based; conditions: Staph. aureus Oxford, 5% chocolated horse blood agar, 18 hours
S. dublin S7 = assay: MIC against veterinary bacteria in vitro
Procedure: as §1

P. mirabilis 889 = assay: MIC against human bacteria in vitro; assay type: cell-based; conditions: P. mirabilis 889, 5% chocolated horse blood agar, 18 hours
E. coli E1 = assay: MIC against veterinary bacteria in vitro
Procedure: as §1

E. coli ESS = assay: MIC against human bacteria in vitro; assay type: cell-based; conditions: E. coli ESS, 5% chocolated horse blood agar, 18 hours
K. aerogenes A = assay: MIC against human bacteria in vitro; assay type: cell-based; conditions: K. aerogenes A, 5% chocolated horse blood agar, 18 hours
M. dispar NCTC 10125 = assay: MIC against mycoplasma in vitro; assay type: cell-based
M. suipneumoniae LABER = assay: MIC against mycoplasma in vitro; assay type: cell-based
[5] = system: Corynebacterium xerosis 9755; assay: MIC against human bacteria in vitro; assay type: cell-based; conditions: Corynebacterium xerosis 9755, 5% chocolated horse blood agar, 18 hours
[6] = system: M. suipneumoniae ATCC 25095; assay: MIC against mycoplasma in vitro; assay type: cell-based
M. suipneumoniae HK(2) = assay: MIC against mycoplasma in vitro; assay type: cell-based
Strep. spp. 64/848-C = assay: MIC against human bacteria in vitro; assay type: cell-based; conditions: Strep. spp. 64/848-C, 5% chocolated horse blood agar, 18 hours
Past. multocida PA2 = assay: MIC against veterinary bacteria in vitro; conditions: Pasteurella multocida, PA2, 18 h
Procedure: as §1

Past. multocida PA1 = assay: MIC against veterinary bacteria in vitro
Procedure: as §1

[7] = Mesomycoplasma hyopneumoniae, MS16, 144 h, read-out: MIC
[8] = Mesomycoplasma hyopneumoniae, UCD1, 144 h
[9] = Staphylococcus aureus, read-out: MIC
[10] = Mesomycoplasma hyorhinis, ATCC23234, 144 h
[11] = Enterococcus faecalis, read-out: MIC
[12] = Mesomycoplasma hyopneumoniae, TAM6N, 144 h
[13] = Micrococcus luteus, read-out: MIC
[14] = Mesomycoplasma hyorhinis, ATCC25021, 144 h
[15] = Bordetella bronchiseptica, B08, 18 h
[16] = Streptococcus agalactiae, SPA1, 18 h
[17] = Streptococcus agalactiae, read-out: MIC
[18] = Escherichia coli, NCTC10418, read-out: MIC
[19] = Streptococcus dysgalactiae, SPD1, 18 h
[20] = Bordetella bronchiseptica, B09, 18 h
[21] = Proteus mirabilis, read-out: MIC
[22] = Escherichia coli, read-out: MIC
[23] = Klebsiella aerogenes, read-out: MIC
[24] = Mesomycoplasma hyopneumoniae, 144 h
[25] = Mesomycoplasma hyopneumoniae, ATCC25095, 144 h

C/C(=C\c1ncc(CCCCCCCCO)o1)C[C@@H]1OC[C@H](C[C@@H]2O[C@H]2[C@@H](C)[C@H](C)O)[C@@H](O)[C@H]1O [Example 19, 5-(8-Hydroxyoctyl)-2-(1-normon-2-yl) oxazole A]
MIC (M. suipneumoniae MS 16; [7]): 0.5 µg/mL (≈ 1.01 µM)
MIC (M. suipneumoniae UCD 1; [8]): 2.5 µg/mL (≈ 5.04 µM)
MIC ([1]; Streptococcus suis, 18 h): 80 µg/mL (≈ 161 µM)
MIC ([2]; read-out: MIC): 32 µg/mL (≈ 64.6 µM)
MIC (Staph. aureus W2827; [9]): 4 µg/mL (≈ 8.07 µM)
MIC ([3]; Staphylococcus aureus, 18 h): 1.25 µg/mL (≈ 2.52 µM)
MIC (M. hyorhinis ATCC 23234; [10]): 1 µg/mL (≈ 2.02 µM)
MIC (Strep. faecalis I; [11]): > 128 µg/mL
MIC (M. suipneumoniae TAM 6N; [12]): 2.5 µg/mL (≈ 5.04 µM)
MIC [4]: 0.25 µg/mL (≈ 0.504 µM)
MIC (Bacillus subtilis 6633; read-out: MIC): 4 µg/mL (≈ 8.07 µM)
MIC (Sarcina lutea 8340; [13]): 128 µg/mL (≈ 258 µM)
MIC (M. hyorhinis ATCC 25021; [14]): 1 µg/mL (≈ 2.02 µM)
MIC (Bord. bronchiseptica B08; [15]): > 80 µg/mL
MIC (Strep. agalactiae SPA1; [16]): 10 µg/mL (≈ 20.2 µM)
MIC (Strep. agalactiae 2788-B; [17]): 16 µg/mL (≈ 32.3 µM)
MIC (Staph. aureus Russell; [9]): 4 µg/mL (≈ 8.07 µM)
MIC (E. coli NCTC 10418; [18]): > 128 µg/mL
MIC (Strep. dysgalactiae SPD1; [19]): 2.5 µg/mL (≈ 5.04 µM)
MIC (Bord. bronchiseptica B09; [20]): 20 µg/mL (≈ 40.4 µM)
MIC (Staph. aureus Oxford; [9]): 4 µg/mL (≈ 8.07 µM)
MIC (S. dublin S7; Salmonella enterica, S7, 18 h): > 80 µg/mL
MIC (P. mirabilis 889; [21]): > 128 µg/mL
MIC (E. coli E1; Escherichia coli, E1, 18 h): > 80 µg/mL
MIC (E. coli ESS; [22]): 16 µg/mL (≈ 32.3 µM)
MIC (K. aerogenes A; [23]): > 128 µg/mL
MIC (M. dispar NCTC 10125; 144 h, M. dispar NCTC 10125, 6 days, 37° C., read-out: MIC): 0.5 µg/mL (≈ 1.01 µM)
MIC (M. suipneumoniae LABER; [24]): 1 µg/mL (≈ 2.02 µM)
MIC ([5]; read-out: MIC): 128 µg/mL (≈ 258 µM)
MIC [6, 25]: 1 µg/mL (≈ 2.02 µM)
MIC (M. suipneumoniae HK(2); [24]): 2.5 µg/mL (≈ 5.04 µM)
MIC (Strep. spp. 64/848-C; read-out: MIC): 16 µg/mL (≈ 32.3 µM)

C/C(=C\c1ncc(-c2ccc(S(=O)(=O)N(C)C)cc2)o1)C[C@@H]1OC[C@H](C[C@@H]2O[C@H]2[C@@H](C)[C@H](C)O)[C@@H](O)[C@H]1O [Example 24, 5-p-Dimethylaminosulphonylphenyl-2-(1-normon-2-yl)oxazole A]
MIC (M. suipneumoniae MS 16; [7]): 0.1 µg/mL (≈ 0.182 µM)
MIC (M. suipneumoniae UCD 1; [8]): 0.25 µg/mL (≈ 0.454 µM)
MIC ([1]; Streptococcus suis, 18 h): 2.5 µg/mL (≈ 4.54 µM)
MIC ([2]; read-out: MIC): 16 µg/mL (≈ 29.1 µM)
MIC (Staph. aureus W2827; [9]): 4 µg/mL (≈ 7.26 µM)
MIC ([3]; Staphylococcus aureus, 18 h): 1.25 µg/mL (≈ 2.27 µM)
MIC (M. hyorhinis ATCC 23234; [10]): 0.1 µg/mL (≈ 0.182 µM)
MIC (Strep. faecalis I; [11]): > 128 µg/mL
MIC (M. suipneumoniae TAM 6N; [12]): 0.25 µg/mL (≈ 0.454 µM)
MIC (Past. multocida PA2): 2.5 µg/mL (≈ 4.54 µM)
MIC ([4]; M. suipneumoniae PW/C/210, 6 days, 37° C., read-out: MIC): 0.1 µg/mL (≈ 0.182 µM)
MIC (Bacillus subtilis 6633; read-out: MIC): 4 µg/mL (≈ 7.26 µM)
MIC (Sarcina lutea 8340; [13]): > 128 µg/mL
MIC (M. hyorhinis ATCC 25021; [14]): 0.1 µg/mL (≈ 0.182 µM)
MIC (Bord. bronchiseptica B08; [15]): 80 µg/mL (≈ 145 µM)
MIC (Strep. agalactiae SPA1; [16]): 1.25 µg/mL (≈ 2.27 µM)
MIC (Strep. agalactiae 2788-B; [17]): 2 µg/mL (≈ 3.63 µM)
MIC (Staph. aureus Russell; [9]): 4 µg/mL (≈ 7.26 µM)
MIC (E. coli NCTC 10418; [18]): > 64 µg/mL
MIC (Strep. dysgalactiae SPD1; [19]): 0.625 µg/mL (≈ 1.13 µM)
MIC (Bord. bronchiseptica B09; [20]): 40 µg/mL (≈ 72.6 µM)
MIC (Staph. aureus Oxford; [9]): 4 µg/mL (≈ 7.26 µM)
MIC (S. dublin S7; Salmonella enterica, S7, 18 h): > 80 µg/mL
MIC (P. mirabilis 889; [21]): > 64 µg/mL
MIC (E. coli E1; Escherichia coli, E1, 18 h): > 80 µg/mL
MIC (E. coli ESS; [22]): 4 µg/mL (≈ 7.26 µM)
MIC (K. aerogenes A; [23]): > 64 µg/mL
MIC (M. dispar NCTC 10125; 144 h): 0.1 µg/mL (≈ 0.182 µM)
MIC ([5]; read-out: MIC): > 128 µg/mL
MIC [6, 25]: 0.1 µg/mL (≈ 0.182 µM)
MIC (M. suipneumoniae HK(2); [24]): 0.25 µg/mL (≈ 0.454 µM)
MIC (Strep. spp. 64/848-C; read-out: MIC): 4 µg/mL (≈ 7.26 µM)
MIC (Past. multocida PA1; Pasteurella multocida, PA1, 18 h): 5 µg/mL (≈ 9.08 µM)

CC(=Cc1cnc(-c2ccccc2)o1)CC1OCC(CC2OC2C(C)C(C)O)C(O)C1O (stereo not shown) [Example 35, 5-(1-Normon-2-yl)-2-phenyloxazole A]
MIC (M. suipneumoniae MS 16): > 10 µg/mL
MIC (M. suipneumoniae UCD 1; M. suipneumoniae UCD 1, 6 days, 37° C.): > 10 µg/mL
MIC ([1]; Strep. suis (group D) SPS11, Diagnostic Sensitivity Test Agar, 18 hours): > 80 µg/mL
MIC [2]: > 128 µg/mL
MIC (Staph. aureus W2827): > 128 µg/mL
MIC ([3]; Staph. aureus B4 (pen. resistant), Diagnostic Sensitivity Test Agar, 18 hours): > 80 µg/mL
MIC (M. hyorhinis ATCC 23234; M. hyorhinis ATCC 23234, 6 days, 37° C.): > 10 µg/mL
MIC (Strep. faecalis I): > 128 µg/mL
MIC (M. suipneumoniae TAM 6N; M. suipneumoniae TAM 6N, 6 days, 37° C.): > 10 µg/mL
MIC (Bacillus subtilis 6633): > 128 µg/mL
MIC (Sarcina lutea 8340): > 128 µg/mL
MIC (M. hyorhinis ATCC 25021; M. hyorhinis ATCC 25021, 6 days, 37° C.): > 10 µg/mL
MIC (Bord. bronchiseptica B08; Bord. bronchiseptica B08, Diagnostic Sensitivity Test Agar, 18 hours): > 80 µg/mL
MIC (Strep. agalactiae SPA1; Strep. agalactiae SPA1, Diagnostic Sensitivity Test Agar, 18 hours): > 80 µg/mL
MIC (Strep. agalactiae 2788-B): > 128 µg/mL
MIC (Staph. aureus Russell): > 128 µg/mL
MIC (E. coli NCTC 10418): > 128 µg/mL
MIC (Strep. dysgalactiae SPD1; Strep. dysgalactiae SPD1, Diagnostic Sensitivity Test Agar, 18 hours): > 80 µg/mL
MIC (Bord. bronchiseptica B09; Bord. bronchiseptica B09, Diagnostic Sensitivity Test Agar, 18 hours): > 80 µg/mL
MIC (Staph. aureus Oxford): > 128 µg/mL
MIC (S. dublin S7; S. dublin S7, Diagnostic Sensitivity Test Agar, 18 hours): > 80 µg/mL
MIC (P. mirabilis 889): > 128 µg/mL
MIC (E. coli E1; E. coli E1, Diagnostic Sensitivity Test Agar, 18 hours, 37° C.): > 80 µg/mL
MIC (E. coli ESS): 128 µg/mL (≈ 289 µM)
MIC (K. aerogenes A): > 128 µg/mL
MIC (M. dispar NCTC 10125; M. dispar NCTC 10125, 6 days, 37° C.): > 10 µg/mL
MIC (M. suipneumoniae LABER; M. suipneumoniae LABER, 6 days, 37° C.): > 10 µg/mL
MIC [5]: > 128 µg/mL
MIC ([6]; M. suipneumoniae ATCC 25095, 6 days, 37° C.): > 10 µg/mL
MIC (M. suipneumoniae HK(2); M. suipneumoniae HK(2), 6 days, 37° C.): > 10 µg/mL
MIC (Strep. spp. 64/848-C): > 128 µg/mL
MIC (Past. multocida PA1; Past. multocida PA1, Diagnostic Sensitivity Test Agar, 18 hours): 80 µg/mL (≈ 180 µM)
